By melting point is commonly meant the temperature of the solid-liquid transition.

Where a name gives a salt, the structure may show the parent alone.

The subject of series [1] is DBA/1 mice undergoing CIA. The series can be described thus: Collagen-induced arthritis (CIA) mouse model of rheumatoid arthritis. The series is classed as in vivo. Conditions: prophylactic treatment, 1 μg/dose at d-2, d0 and d21, versus PBS; FIG. 1. The protocol:
DBA/1 mice undergoing CIA (PBS) were treated with SMAs S3 (1 μg/dose; S3-1) and S5 (1 μg/dose; S5-1) at d-2, d0 and d21 and monitored every second day for (A) articular score; (B) paw swelling; (C) incidence of CIA (articular score>2) and (D) incidence of severe pathology (articular score >4). Data in A & B are presented as mean values±SEM where PBS, n=28, S3, n=14 and S5, n=13 individual mice, except at d33 and d35 where PBS, n=14, S3, n=7 and S5, n=7 individual mice, and analysis was by Mann-Whitney test and *p<0.05, **p<0.01 and ***p<0.001 where blue * and black * represent PBS versus S3-1 and S5-1, respectively.

The test system of series [2] is Peritoneal-derived mast cells (PDMC). Put plainly: Mast cell degranulation after FcεRI crosslinking. It counts as cell-based. To be noted: pre-treated during IgE sensitisation, measured 1 h after FcεRI crosslinking; FIG. 2. The protocol:
(§1) Peritoneal-derived mast cells (PDMC; panels A & D) or bone marrow-derived mast cells (BMM; B, C, E & F) were pre-treated with the indicated concentrations of S3 and S5 (μg/ml) during the IgE sensitisation phase and then degranulation measured 1 h (A & D) following crosslinking of the IgE-bound FcεRI receptors (XL) or not (Basal). Alternatively TNFα (B & E) or IL-6 (C & F) release was measured 24 h following FcεRI crosslinking. Data are presented as means±SD where n=3 and analysis is by 1-way ANOVA and Newman-Keuls post test where ***p<0.001.
(§2) S3 and S5 were also tested for their effects on another immune system cell type, the mast cell. Similar to macrophages, activation of mast cells for example via the high-affinity receptor for IgE results in degranulation, resulting in release of inflammatory mediators, and secretion of various cytokines.

Series [3] concerns bone marrow-derived mast cells (BMM). The series can be described thus: Mast cell cytokine release after FcεRI crosslinking. Conditions: pre-treated during IgE sensitisation, 24 h after FcεRI crosslinking; FIG. 2. The series is classed as cell-based. The protocol: as §1, §2
The subject of series [4] is mouse model of asthma, ovalbumin-induced airway hypersensitivity. Put plainly: Ovalbumin-induced airway hypersensitivity (OAH) mouse model of asthma. To be noted: for lung pathology (H & E staining of lung tissue) / eosinophil influx into the lungs (BALF): prophylactic treatment; for lung pathology (H & E staining of lung tissue): FIG. 3A; for eosinophil influx into the lungs (BALF): FIG. 3B; for neutrophil influx into the lungs (BALF): therapeutic treatment, FIG. 3C. It counts as in vivo. The protocol: As a consequence of the mast cell findings S3 and […] were tested in a mouse model of asthma, ovalbumin-induced airway hypersensitivity (OAH). As can be shown in FIG. 3, both sulfones are able to inhibit infiltration of disease-causing eosinophils into the lungs and also overall lung pathology.

`C[N+](C)(C)CCS(=O)(=O)Cc1ccc(Br)cc1` (as salt: methane sulfonate) [S1, N,N.N-trimethyl-2-1(4-bromobenzyl)sulfonyl{ethanaminiummethane sulfonate]: the melting point was in the range of 187 to 188 °C. On to `CN(C)CCS(=O)(=O)Cc1ccc(Br)cc1` [S3, N-{2-[(4-Bromobenzyl)sulfonyl]ethyl}-N,N-dimethylamine], for which the melting point lay in the range of 58 to 60 °C. In addition, the “development of arthritis (articular score, paw swelling, incidence)” value in series [1] is listed as “significantly suppressed the development of arthritis”. Also, the mast cell degranulation result in series [2] is on record as “suppressing degranulation”. Further, in series [3], the “secretion of IL-6 by mast cells” value is given as “inhibiting secretion” and the “secretion of TNF-α by mast cells” value is “inhibiting secretion”. In addition, in series [4], the “lung pathology (H & E staining of lung tissue)” value is reported as “inhibits lung pathology”, the “eosinophil influx into the lungs (BALF)” value is on record as “inhibits” and the “neutrophil influx into the lungs (BALF)” value is reported as “inhibits neutrophil influx”. `Cc1ccc(CS(=O)(=O)CCN(C)C)cc1` [S4, N,N-Di methyl-2-[(4-methylbenzyl)sulfonyl]ethanamine]: the melting point was in the range of 68 to 70 °C.

On to `Cc1ccc(CS(=O)(=O)CC[N+](C)(C)C)cc1.[I-]` [S5, N,N,N-trimethyl-2-[(4-methylbenzyl)sulfonyl]ethanaminium iodide], for which the melting point is 212 to 214 °C. Also, the “development of arthritis (articular score, paw swelling, incidence)” value in series [1] was “significantly suppressed the development of arthritis”. In addition, in series [2], the mast cell degranulation result is given as “suppressing degranulation”. In series [3], the “secretion of IL-6 by mast cells” value was “inhibiting secretion” and the “secretion of TNF-α by mast cells” value is recorded as “inhibiting secretion”. For the same compound, in series [4], the “lung pathology (H & E staining of lung tissue)” value was “inhibits lung pathology”, the “eosinophil influx into the lungs (BALF)” value was “inhibits” and the “neutrophil influx into the lungs (BALF)” value was “inhibits neutrophil influx”.

`Cc1ccc(CS(=O)(=O)CCN2CCCC2)cc1` [S7, 1-(2-[(4-Methylbenzyl)sulfonyl]ethyl)pyrrolidine] yielded a melting point of 84 to 86 °C. On the same count and under the same terms, the value for `Cc1ccc(CS(=O)(=O)CC[N+]2(C)CCCC2)cc1.[I-]` [S8, 1-Methyl-1-{2-[(4-methylbenzyl)sulfonyl]ethyl}pyrrolidinium iodide] was 214 to 216 °C.

In turn, `O=S(=O)(CCN1CCCC1)Cc1ccc(Br)cc1` [S9, 1-{2-[(4-bromobenzyl}sulfonyl]ethyl}pyrrolidine] displayed a melting point of 90 to 92 °C. The same measure, in the same setting: to `C[N+]1(CCS(=O)(=O)Cc2ccc(Br)cc2)CCCC1.[I-]` [S10, 1-Methyl-1-{2-[(4-bromobenzyl)sulfonyllethyl]}pyrrolidinium iodide] belongs 196 to 198 °C. Consider `Cc1ccc(CS(=O)(=O)CCCN2CCOCC2)cc1` [S19, 4-{3-[(4-methylbenzyl)sulfonyl]propyl}morpholine], for which the melting point is 92 to 93 °C.

Compound `Cc1ccc(CS(=O)(=O)CCCN2CCCC2)cc1` [S20, 1-{3-[(4-Methylbenzyl)sulfonyl]propyl}-pyrrolidine] had a melting point of 84 to 86 °C. Still for that read-out and setting: the value for `Cc1ccc(CS(=O)(=O)CCC[N+]2(C)CCOCC2)cc1.[I-]` [S22, 4-methyl-4-{3-[(4-methylbenzyl)sulfonyl]propyl}morpholin-4-ium iodide] was 181 to 183 °C; that for `O=S(=O)(CCN1CCOCC1)Cc1cccc(F)c1` [S25, 4-{2-[(3-Fluorobenzyl)sulfonyl]ethyl}morpholine] was 74 to 76 °C.

Turning to `O=S(=O)(CCN1CCCC1)Cc1cccc(F)c1` [S26, 1-{2-[(3-Fluorobenzyl)sulfonyl]ethyl}pyrrolidine], the melting point lay within 66 to 68 °C. On the same count and under the same terms, the value for `CN(C)CCS(=O)(=O)Cc1ccc(F)cc1` [S27, N-{2-[(4-Fluorobenzyl)sulfonyl]ethyl}-N,N-dimethylamine] was 50 to 52 °C; that for `O=S(=O)(CCN1CCOCC1)Cc1ccc(F)cc1` [S28, 4-{2-[(4-Fluorobenzyl)sulfonyl]ethyl}morpholine] was 72 to 74 °C; that for `O=S(=O)(CCN1CCCC1)Cc1ccc(F)cc1` [S29, 1-{2-[(4-Fluorobenzyl)sulfonyl]ethyl}pyrrolidine] was 76 to 78 °C.

(Values after patent US9598386B2, “Immunomodulatory compounds” (University of Strathclyde, priority 2012, dated 2017).)
